Tests used:
Type in all cases: in vivo
[1] = tested on: Diamond Back Moth (Plutella xylostella); assay: B.1 Diamond Back Moth (Plutella xylostella), cabbage leaf dip; conditions: foliar, 500 ppm, 3rd instar larvae on dipped cabbage leaves, 72 hours after treatment, in comparison with untreated controls, read-out: mortality
How it was run: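 Cabbage leaves dipped in compound in 1:1 water:acetone with 0.01% Kinetic HV surfactant, air-dried, then infested with ten 3rd-instar larvae on moist filter paper. Mortality scored at 72 h after treatment; feeding damage rated on a 0-100% scale.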

[2] = tested on: Orchid thrips (dichromothrips corbetti); assay: B.2 Orchid thrips (dichromothrips corbetti), floral-immersion technique; conditions: adult thrips on dipped orchid petals, 72 hours after treatment, in comparison with untreated controls
Method: B.2 Orchid thrips (dichromothrips corbetti)
Dichromothrips corbetti adults used for bioassay were obtained from a colony maintained continuously under laboratory conditions. For testing purposes, the test compound is diluted in a 1:1 mixture of acetone:water (vol:vol), plus Kinetic HV at a rate of 0.01% v/v.
Thrips potency of each compound was evaluated by using a floral-immersion technique. All petals of individual, intact orchid flowers were dipped into treatment solution and allowed to dry in Petri dishes. Treated petals were placed into individual resealable plastic along with about 20 adult thrips. All test arenas were held under continuous light and a temperature of about 28° C. for duration of the assay. After 3 days, the numbers of live thrips were counted on each petal. The percent mortality was recorded 72 hours after treatment.

[3] = tested on: Boll Weevil (Anthonomus grandis); assay: B.3 Boll Weevil (Anthonomus grandis), microtiter plate insect diet; conditions: 120 h, 800 ppm, sprayed onto insect diet, 5 days, in comparison with untreated controls, read-out: mortality (egg and larval)
How it was run: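 Compounds in 25% DMSO/water sprayed at several concentrations onto insect diet in microtiter wells holding 5–10 A. grandis eggs, two replicates. Plates kept 5 days at about 25±1 °C and 75±5% RH. Egg and larval mortality scored visually.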

[4] = tested on: Mediterranean Fruitfly (Ceratitis capitata); assay: B.6 Mediterranean Fruitfly (Ceratitis capitata), microtiter plate insect diet; conditions: 120 h, 800 ppm, sprayed onto insect diet, 5 days, in comparison with untreated controls, read-out: mortality (egg and larval)
How it was run: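 Insect diet with 50-80 C. capitata eggs sprayed with compounds formulated in 75% water/25% DMSO, at different concentrations, two replications. Incubation at about 28±1° C and 80±5% relative humidity for 5 days, then egg and larval mortality assessed visually.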

[5] = tested on: Tobacco Budworm (Heliothis virescens); assay: B.7 Tobacco Budworm (Heliothis virescens) I, microtiter plate insect diet; conditions: 120 h, 800 ppm, sprayed onto insect diet, 5 days, in comparison with untreated controls, read-out: mortality (egg and larval)
How it was run: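 96-well plates with insect diet and 15-25 H. virescens eggs; compounds in 75% water/25% DMSO sprayed onto diet at several concentrations, two replicates. Plates held at about 28±1° C. and 80±5% relative humidity for 5 days, then egg and larval mortality scored visually.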

[6] = tested on: Green Peach Aphid (Myzus persicae); assay: B.9 Green Peach Aphid (Myzus persicae), sprayed bell pepper plants; conditions: 120 h, infested bell pepper plants sprayed, after 5 days, in comparison with untreated controls
How it was run: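 Bell pepper plants at first true-leaf stage, infested with 30-50 aphids each, were sprayed electrostatically with compound in 50% acetone:water plus 0.01% nonionic surfactant. Held at about 25° C, 24-hr light, 20-40% RH. Mortality versus untreated controls scored after 5 days.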

[7] = tested on: Southern Armyworm (Spodoptera eridania), 2nd Instar Larvae; assay: B.10 Southern Armyworm (Spodoptera eridania), 2nd Instar Larvae, sprayed lima bean plants; conditions: 96 h, 300 ppm, larvae on sprayed lima bean plants, 4 days after treatment, in comparison with untreated controls, read-out: mortality
How it was run: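 Lima bean plants at 1st true leaf stage sprayed electrostatically with compound in 50% acetone:50% water plus 0.01% nonionic surfactant, then infested with about 10 to 11 2nd instar larvae. Mortality and reduced feeding assessed 4 days after treatment at about 25° C versus untreated plants.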

[8] = tested on: Yellow Fever Mosquito (Aedes aegypti); assay: whole plant or invertebrate; conditions: 48 h, freshly hatched larvae in tap water, 2 days, in comparison with untreated controls, read-out: mortality (larval)
How it was run: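 Freshly hatched A. aegypti larvae, 5–15 per well, were held in 200 μl tap water. Compounds formulated in 75:25 water:DMSO were sprayed at various concentrations, 2.5 μl per well by micro-atomizer, in two replicates.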

[9] = tested on: Orchid thrips (dichromothrips corbetti); assay: B.12 Orchid thrips (dichromothrips corbetti), floral-immersion technique; conditions: adult thrips on dipped orchid petals, 72 hours after treatment, in comparison with untreated controls
How it was run: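 Whole orchid flower petals were dipped in compound in 1:1 acetone:water with 0.01% v/v Kinetic HV, dried, and enclosed with about 20 adult thrips. They were held under continuous light at about 28° C. Live thrips were counted and percent mortality recorded at 72 hours.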

[10] = tested on: Cowpea Aphid (aphis craccivora); assay: B.4 Cowpea Aphid (aphis craccivora), sprayed potted cowpea plants; conditions: after 72 hours, in comparison with untreated controls
Method: B.4 Cowpea Aphid (aphis craccivora)
The active compound is dissolved at the desired concentration in a mixture of 1:1 (vol:vol) distilled water:acetone. Surfactant (Kinetic HV) is added at a rate of 0.01% (vol/vol). The test solution is prepared at the day of use.
Potted cowpea plants were colonized with approximately 50-100 aphids of various stages by manually transferring a leaf tissue cut from infested plant 24 hours before application. Plants were sprayed after the pest population has been recorded. Treated plants are maintained on light carts at about 28° C. Percent mortality was assessed after 72 hours.

Cc1cccc(C)c1NC(=S)N/N=C/c1ccc2c(ccc3c2ncn3-c2ccc(OC(F)(F)F)cc2)c1 [C-1, 1-(2,6-dimethylphenyl)-3-[(E)-[3-[4-(trifluoromethoxy)phenyl]benzo[e]benzimidazol-7-yl]methyleneamino]thiourea]
≥ 75%: mortality at 500 ppm [1] | mortality at 300 ppm [2] | mortality at 800 ppm [3] | mortality at 800 ppm [4] | mortality at 800 ppm [5] | mortality at 800 ppm [6] | mortality at 300 ppm [7] | mortality at 800 ppm [8] | mortality at 500 ppm [9]

Cc1ccccc1NC(=S)N/N=C/c1ccc2c(c1)CCc1c-2nnn1-c1ccc(OC(F)(F)F)cc1 [C-34, 1-(o-tolyl)-3-[[3-[4-(trifluoromethoxy)phenyl]-5,8-dihydro-4H-benzo[e]benzotriazol-7-ylidene]methylimino] thiourea]
≥ 75%: mortality at 500 ppm [10] | mortality at 800 ppm [4]

Cc1ccccc1NC(=S)N(C)/N=C/c1ccc2c(ccc3c2ncn3-c2ccc(OC(F)(F)F)cc2)c1 [C-87, 1-methyl-3-(o-tolyl)-1-[(E)-[3-[4-(trifluoromethoxy)phenyl]benzo[e]benzimidazol-7-yl]methyleneamino]thiourea]
≥ 75%: mortality at 500 ppm [1] | mortality at 800 ppm [3] | mortality at 500 ppm [10] | mortality at 800 ppm [4] | mortality at 800 ppm [8]

From patent US9497970B2, “Pesticide compounds” (priority 2013, dated 2016)
